For 34 compounds, IC50 and inhibition results are on record in patent EP2272817A1, “PAI-1 INHIBITOR” (Institute of Medicinal Molecular Design, Inc., priority 2008, dated 2009).

Sequence of recombinant human PAI-1 (P05121 24-402): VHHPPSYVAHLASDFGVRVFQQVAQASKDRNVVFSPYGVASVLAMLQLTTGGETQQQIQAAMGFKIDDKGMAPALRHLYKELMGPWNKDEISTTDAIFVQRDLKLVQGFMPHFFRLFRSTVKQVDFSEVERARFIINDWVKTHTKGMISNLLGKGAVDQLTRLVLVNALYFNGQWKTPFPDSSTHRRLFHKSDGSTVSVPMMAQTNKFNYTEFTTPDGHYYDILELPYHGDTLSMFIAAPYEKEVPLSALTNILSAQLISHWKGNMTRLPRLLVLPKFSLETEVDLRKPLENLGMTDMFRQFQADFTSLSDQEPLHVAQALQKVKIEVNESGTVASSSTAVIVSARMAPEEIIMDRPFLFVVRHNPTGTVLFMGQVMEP

The target in one test is recombinant human PAI-1 (Homo sapiens, UniProt P05121). The test is described as follows: Test Example 2: Human PAI-1 Inhibitory Activity (pH 7.4 HEPES buffer, 10 minutes incubation with two-chain tPA). As to conditions: concentration that inhibits 50 % of the human PAI-1 activity, calculated from the inhibition rates of Test Example 2; read-out: IC50. In kind it is biochemical. On the set-up: purchased Molecular Innovations, Inc. As to the method: 0.1 M HEPES, 0.1 M NaCl. 1 mM EDTA. 0.1 % Polyethylene glycol 8,000 (Hampton Research Corporation),
2 mM Dimethyldecylphoshine oxide [Apo-10] (Fluka Corporation)
Consider `CCCCCCCc1ccc(-c2ccc(OC(F)(F)F)cc2)cc1N(CCCCc1ccccc1)C(=O)C(=O)O` [Compound 371], for which the IC50 is 690 nM.

Still in this test, the particulars now being: read-out: Inhibition Rate of PAI-1 Activity (%).
Turning to `CC(C)(C)c1cccc(Oc2cc(-c3ccc(OC(F)(F)F)cc3)ccc2/C=C/C(=O)O)c1` [Compound 335], the inhibition at 0.1 µM stood at 4%, the inhibition at 0.3 µM was 8%, the inhibition at 1 µM was 80% and the inhibition at 3 µM was above 99%.
`CC(C)(C)c1cccc(Oc2cc(-c3ccc(OC(F)(F)F)cc3)ccc2CCC(=O)O)c1` [Compound 336]: the inhibition at 0.1 µM stood at 0%, the inhibition at 0.3 µM is 5%, the inhibition at 1 µM amounted to 45% and the inhibition at 3 µM is above 99%.
In the same order, the values of `O=C(O)COc1ccc(-c2ccc(OC(F)(F)F)cc2)cc1OCCCCc1ccccc1` [Compound 337] are 2%, 8%, 19% and 97%.
As to `CC(C)(C)OCCOc1ccc(-c2ccc(OC(F)(F)F)cc2)cc1N(CCCCc1ccccc1)C(=O)C(=O)O` [Compound 351], the inhibition at 0.1 µM was 2%, the inhibition at 0.3 µM amounted to 7%, the inhibition at 1 µM is 23% and the inhibition at 3 µM was found to be 84%.
With `CCCCCCCOc1ccc(-c2ccc(OC(F)(F)F)cc2)cc1N(CCCCc1ccccc1)C(=O)C(=O)O` [Compound 352], the inhibition at 0.1 µM came to 0%, the inhibition at 0.3 µM was found to be 4%, the inhibition at 1 µM stood at 72% and the inhibition at 3 µM was 90%.
Consider `CCCCCCCCOc1ccc(-c2ccc(OC(F)(F)F)cc2)cc1N(CCCCc1ccccc1)C(=O)C(=O)O` [Compound 353], for which the inhibition at 0.1 µM amounted to 6%, the inhibition at 0.3 µM worked out at 19%, the inhibition at 1 µM amounted to 87% and the inhibition at 3 µM was found to be 87%.
Turning to `O=C(O)C(=O)N(CCCCc1ccccc1)c1cc(-c2ccc(OC(F)(F)F)cc2)ccc1OCCCCc1ccccc1` [Compound 354], the inhibition at 0.1 µM was found to be 5%, the inhibition at 0.3 µM is 10%, the inhibition at 1 µM worked out at 91% and the inhibition at 3 µM is 89%.
Regarding `O=C(O)C(=O)N(CCCCc1ccccc1)c1cc(-c2ccc(OC(F)(F)F)cc2)ccc1OCCCC1CCCC1` [Compound 355], the inhibition at 0.1 µM is 2%, the inhibition at 0.3 µM was found to be 3%, the inhibition at 1 µM worked out at 91% and the inhibition at 3 µM amounted to 86%.
Consider `CCCCCOc1ccc(-c2ccc(OC(F)(F)F)cc2)cc1N(CCCOc1ccccc1)C(=O)C(=O)O` [Compound 356], for which the inhibition at 0.1 µM was determined as 7%, the inhibition at 0.3 µM turned out to be 13%, the inhibition at 1 µM was 53% and the inhibition at 3 µM is above 99%.
The like results for `CCCCCOc1ccc(-c2ccc(OC(F)(F)F)cc2)cc1N(CCCSc1ccccc1)C(=O)C(=O)O` [Compound 357] were, in that order, 0%, 2%, 69% and above 99%.
Consider `CCCCCN(C(=O)C(=O)O)c1cc(-c2ccc(OC(F)(F)F)cc2)ccc1OCCCCc1ccccc1` [Compound 358], for which the inhibition at 0.1 µM worked out at 0%, the inhibition at 0.3 µM was found to be 10%, the inhibition at 1 µM came out at 55% and the inhibition at 3 µM came out at 98%.
In the same order, the values of `CCCCCOc1ccc(-c2ccc(F)cc2)cc1N(CCCCc1ccccc1)C(=O)C(=O)O` [Compound 359] are 1%, 7%, 26% and 96%.
Regarding `CCCCCOc1ccc(-c2ccccc2)cc1N(CCCCc1ccccc1)C(=O)C(=O)O` [Compound 360], the inhibition at 0.1 µM stood at 5%, the inhibition at 0.3 µM is 8%, the inhibition at 1 µM stood at 35% and the inhibition at 3 µM is 92%.
Regarding `CCCCCOc1ccc(-c2ccc(Cl)cc2)cc1N(CCCCc1ccccc1)C(=O)C(=O)O` [Compound 361], the inhibition at 0.1 µM came to 9%, the inhibition at 0.3 µM came to 5%, the inhibition at 1 µM was 68% and the inhibition at 3 µM was 97%.
On to `CCCCCOc1cc(Oc2ccc(OC(F)(F)F)cc2)ccc1N(CCCCc1ccccc1)C(=O)C(=O)O` [Compound 362], for which the inhibition at 0.1 µM was 11%, the inhibition at 0.3 µM is 18%, the inhibition at 1 µM was 61% and the inhibition at 3 µM was above 99%.
`CCCCCOc1ccc(Oc2ccc(OC(F)(F)F)cc2)cc1N(CCCCc1ccccc1)C(=O)C(=O)O` [Compound 363]: the inhibition at 0.1 µM came out at 2%, the inhibition at 0.3 µM amounted to 4%, the inhibition at 1 µM was determined as 72% and the inhibition at 3 µM was above 99%.
`CCCCCCCCCOc1ccc(-c2ccc(OC(F)(F)F)cc2)cc1N(CCCCc1ccccc1)C(=O)C(=O)O` [Compound 364]: the inhibition at 0.1 µM is 41%, the inhibition at 0.3 µM came to 94%, the inhibition at 1 µM amounted to 97% and the inhibition at 3 µM is 92%.
The like results for `CCCCCCCCCCOc1ccc(-c2ccc(OC(F)(F)F)cc2)cc1N(CCCCc1ccccc1)C(=O)C(=O)O` [Compound 365] were, in that order, 41%, 97%, 97% and 92%.
`CCCCCOc1ccc(-c2ccc(OC(F)(F)F)cc2)cc1N(CCCCC)C(=O)C(=O)O` [Compound 366]: the inhibition at 0.1 µM is 8%, the inhibition at 0.3 µM worked out at 24%, the inhibition at 1 µM was 46% and the inhibition at 3 µM came to 96%.
In the same order, the values of `CCCCCOc1cc(-c2ccc(OC(F)(F)F)cc2)ccc1N(CCCCc1ccccc1)C(=O)C(=O)O` [Compound 367] are 10%, 26%, 52% and 94%.
The like results for `O=C(O)C(=O)N(CCCCc1ccccc1)c1cc(-c2ccc(OC(F)(F)F)cc2)ccc1OC1CCCCC1` [Compound 368] were, in that order, 0%, 22%, 95% and 85%.
Regarding `CCC(CC)Oc1ccc(-c2ccc(OC(F)(F)F)cc2)cc1N(CCCCc1ccccc1)C(=O)C(=O)O` [Compound 369], the inhibition at 0.1 µM came to 0%, the inhibition at 0.3 µM came out at 8%, the inhibition at 1 µM was 70% and the inhibition at 3 µM is 95%.
On to `O=C(O)C(=O)N(CCCCc1ccccc1)c1cc(-c2ccc(OC(F)(F)F)cc2)ccc1N1CCCCC1` [Compound 370], for which the inhibition at 0.1 µM stood at 0%, the inhibition at 0.3 µM came to 0%, the inhibition at 1 µM amounted to 66% and the inhibition at 3 µM was 97%.
In the case of `CCCCCCCc1ccc(-c2ccc(OC(F)(F)F)cc2)cc1N(CCCCc1ccccc1)C(=O)C(=O)O` [Compound 371], the inhibition at 0.1 µM worked out at 10%, the inhibition at 0.3 µM turned out to be 17%, the inhibition at 1 µM was 93% and the inhibition at 3 µM worked out at 91%.
In the case of `CCCCCOc1cc(-c2ccc(OC(F)(F)F)cc2)cc(N(CCCCc2ccccc2)C(=O)C(=O)O)c1OCCCCC` [Compound 372], the inhibition at 0.1 µM came to 2%, the inhibition at 0.3 µM is 27%, the inhibition at 1 µM came out at 97% and the inhibition at 3 µM was 93%.
In the same order, the values of `CC(C)(C)Oc1ccc(-c2ccc(OC(F)(F)F)cc2)cc1N(CCCCc1ccccc1)C(=O)C(=O)O` [Compound 373] are 0%, 0%, 28% and 90%.
The like results for `CCCCCOc1ccc(-c2ccc(OC(F)(F)F)cc2)cc1N(CCCCOc1ccccc1)C(=O)C(=O)O` [Compound 374] were, in that order, 5%, 16%, 57% and above 99%.
On to `CCCCCCCCCCCCCCCOc1ccc(-c2ccc(OC(F)(F)F)cc2)cc1N(CCCCc1ccccc1)C(=O)C(=O)O` [Compound 375], for which the inhibition at 0.1 µM was found to be 73%, the inhibition at 0.3 µM is 97%, the inhibition at 1 µM was above 99% and the inhibition at 3 µM came to 79%.
The like results for `CCCCCOc1cc(-c2cccc(C)c2)ccc1N(CCCCc1ccccc1)C(=O)C(=O)O` [Compound 376] were, in that order, 6%, 15%, 62% and 95%.
`CCCCCOc1cc(-c2cccc(C(F)(F)F)c2)ccc1N(CCCCc1ccccc1)C(=O)C(=O)O` [Compound 377]: the inhibition at 0.1 µM was 1%, the inhibition at 0.3 µM came to 23%, the inhibition at 1 µM came out at 83% and the inhibition at 3 µM came to 94%.
With `CCCCCOc1ccc(-c2cccc(C(F)(F)F)c2)cc1N(CCCCc1ccccc1)C(=O)C(=O)O` [Compound 378], the inhibition at 0.1 µM amounted to 20%, the inhibition at 0.3 µM is 7%, the inhibition at 1 µM was 80% and the inhibition at 3 µM stood at 91%.
In the same order, the values of `CCCCCOc1ccc(-c2cccc(C)c2)cc1N(CCCCc1ccccc1)C(=O)C(=O)O` [Compound 379] are 14%, 17%, 78% and 92%.
Regarding `CCCCCCCCCOc1cc(-c2ccc(OC(F)(F)F)cc2)ccc1N(CCCCc1ccccc1)C(=O)C(=O)O` [Compound 380], the inhibition at 0.1 µM came to 76%, the inhibition at 0.3 µM was 96%, the inhibition at 1 µM turned out to be 97% and the inhibition at 3 µM was above 99%.
Regarding `O=C(O)C(=O)N(CCCCc1ccccc1)c1cc(-c2ccc(OC(F)(F)F)cc2)ccc1OCCCCC(F)(F)F` [Compound 381], the inhibition at 0.1 µM stood at 12%, the inhibition at 0.3 µM amounted to 13%, the inhibition at 1 µM worked out at 48% and the inhibition at 3 µM is above 99%.

Broadly, the IC50 is the concentration that inhibits the measured activity by half. As a reminder, the inhibition is how much of the control response was suppressed.
